Usually Ki stands for a dissociation constant, usually derived from enzyme kinetics or from competition with a known ligand. Higher therefore signals a looser hold on the target.

hA2a receptors, sequence (P29274 whole entry): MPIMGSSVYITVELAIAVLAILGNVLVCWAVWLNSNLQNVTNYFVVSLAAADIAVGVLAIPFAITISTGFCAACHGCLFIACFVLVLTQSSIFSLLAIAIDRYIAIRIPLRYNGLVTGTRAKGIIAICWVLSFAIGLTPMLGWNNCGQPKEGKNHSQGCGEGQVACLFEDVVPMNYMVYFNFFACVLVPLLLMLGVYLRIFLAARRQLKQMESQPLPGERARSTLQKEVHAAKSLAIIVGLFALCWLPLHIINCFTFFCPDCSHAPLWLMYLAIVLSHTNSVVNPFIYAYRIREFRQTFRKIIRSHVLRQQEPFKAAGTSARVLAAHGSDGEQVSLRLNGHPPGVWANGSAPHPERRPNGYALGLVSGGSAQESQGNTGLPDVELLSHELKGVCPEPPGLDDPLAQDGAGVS

The first assay concerns the target hA2a receptors (Homo sapiens (Human), UniProt P29274). Put plainly: Adenosine A2a receptor subtype competition radioligand binding assay. Particulars: membranes from hA2a receptors transfected to HeLa cells, [3H]ZM241385 as radioligand, Cheng-Prusoff. The protocol: Pharmacological Activity Adenosine A2a Receptor Subtype Competition Radioligand Binding Assay
Human membranes from recombinant adenosine receptors were purchased from Receptor Biology, Inc. (USA)
Competition assays were carried out by incubation of membranes from hA2a receptors transfected to HeLa cells, [^3H]ZM241385 as radioligand, buffer (50 mM Tris-HCl (pH=7.4), 10 mM MgCl2, 1 mM EDTA, 2 units/ml adenosine deaminase), and unlabelled ligand in a total volume of 0.2 ml for 30 min at 25° C. NECA was used to determinate non-specific binding. Filter over Schleicher&Schuell GF/52 filters (pre-soaked 0.5% polyethylenimine) in a Brandel cell harvester. Unbound radioligand was removed with 3×250 μl ice-cold 50 mM Tris-HCl (pH=7.4), 10 mM MgCl and 1 mM EDTA.
(§1) Concentration-response binding competition curves were carried out by assaying 6 different concentrations (range between 10 nm to 100 μM). […] IC50 values were obtained by fitting the data with non-linear regression, with Prism 2.1 software (GraphPad, San Diego, Calif.). Cyclic Adenosine Monophosphate Production Measurement.
In turn, `Nc1nc(-n2cccn2)nc(N2CCCC2)c1Br` [Example 3, 5-bromo-2-(1H-pyrazol-1-yl)-6-(pyrrolidin-1-yl)pyrimidin-4-amine] registered a Ki of 11 nM.

Regarding `Nc1nc(-n2cccn2)nc(NC2CCCC2)c1Br` [Example 4, 5-bromo-N^4-cyclopentyl-2-(1H-pyrazol-1-yl)pyrimidine-4,6-diamine], the affinity corresponds to a Ki of 6 nM. On the same count and under the same terms, then `Nc1nc(-n2cccn2)nc(N2CCCCC2)c1Br` [Example 5, 5-bromo-6-(piperidin-1-yl)-2-(1H-pyrazol-1-yl)pyrimidin-4-amine], with 14 nM; and `Nc1nc(-n2cccn2)nc(NC2CC2)c1Br` [Example 8, 5-bromo-N^4-cyclopropyl-2-(1H-pyrazol-1-yl)pyrimidine-4,6-diamine], with 18 nM.

Compound `Nc1nc(-n2cccn2)nc(N2CCC2)c1Br` [Example 9, 6-(azetidin-1-yl)-5-bromo-2-(1H-pyrazol-1-yl)pyrimidin-4-amine] displayed a Ki of 33 nM.

In the case of `Nc1nc(-n2cccn2)nc(NC2CCC2)c1Br` [Example 10, 5-bromo-N^4-cyclobutyl-2-(1H-pyrazol-1-yl)pyrimidine-4,6-diamine], the Ki was 21 nM. Still for that read-out and setting: then `CN(C)c1nc(-n2cccn2)nc(N)c1Br` [Example 13, 5-bromo-N^4,N^4-dimethyl-2-(1H-pyrazol-1-yl)pyrimidine-4,6-diamine], with 35 nM. On the same count and under the same terms, then `COC[C@H]1CCCN1c1nc(-n2cccn2)nc(N)c1Br` [Example 20, 5-bromo-6-((R)-2-(methoxymethyl)pyrrolidin-1-yl)-2-(1H-pyrazol-1-yl)pyrimidin-4-amine], with 14 nM; and `CNc1nc(-n2cccn2)nc(N)c1Br` [Example 24, 5-bromo-N^4-methyl-2-(1H-pyrazol-1-yl)pyrimidine-4,6-diamine], with 16 nM.

Turning to `Nc1nc(-n2cccn2)nc(NCC2CC2)c1Br` [Example 29, 5-bromo-N^4-(cyclopropylmethyl)-2-(1H-pyrazol-1-yl)pyrimidine-4,6-diamine], the Ki was determined as 10 nM.

In turn, `CCSc1nc(-n2cccn2)nc(N)c1Br` [Example 36, 5-bromo-6-(ethylthio)-2-(1H-pyrazol-1-yl)pyrimidin-4-amine] showed a Ki of 8 nM.

`CC(C)Sc1nc(-n2cccn2)nc(N)c1Br` [Example 38, 5-bromo-6-(isopropylthio)-2-(1H-pyrazol-1-yl)pyrimidin-4-amine] returned a Ki of 7 nM. Same read-out and setting: as for `Nc1nc(-n2cccn2)nc(OCC(F)(F)F)c1Br` [Example 44, 6-(2,2,2-trifluoroethoxy)-5-bromo-2-(1H-pyrazol-1-yl)pyrimidin-4-amine], the figure is 14 nM; as for `Nc1nc(-n2cccn2)nc(-n2cccn2)c1Cl` [Example 46, 5-chloro-2,6-di-(1H-pyrazol-1-yl)pyrimidine-4-amine], 17 nM. The same measure, in the same setting: then `N#Cc1c(N)nc(-n2cccn2)nc1-n1cccn1` [Example 48, 4-amino-2,6-di-(1H-pyrazol-1-yl)pyrimidine-5-carbonitrile], with 7 nM. On to `Nc1nc(-c2nccs2)nc(-c2nccs2)c1Br` [Example 93, 5-Bromo-2,6-di(thiazol-2-yl)pyrimidin-4-amine], for which the Ki was determined as 1 nM.

A further assay deals with A2a adenosine receptor (Homo sapiens (Human), UniProt P29274). Put plainly: Cyclic adenosine monophosphate (cAMP) production measurement in CHO-A2A cells. Format: cell-based. Particulars: 1 μM NECA, 30 μM rolipram, cAMP enzymeimmunoassay. The method, then: as §1
A2a adenosine receptor, sequence (P29274 whole entry): as above
These assays were performed at adenosine receptors transfected using a cAMP enzymeimmunoassay kit (Amersham Biosciences). CHO-A2A cells were seeded (10000 cells/well) in 96-well culture plates and incubated at 37° C. in an atmosphere with 5% CO2 in Dulbecco's Modified Eagle's Medium Nutrient Mixture F-12 (DMEM F-12), containing 10% Foetal Calf Serum (FCS) and 1% L-Glutamine. Cells were washed 3× with 200 μl assay medium (DMEM-F12 and 25 mM HEPES pH=7.4) and pre-incubated with assay medium containing 30 μM rolipram and test compounds at 37° C. for 15 min. 1 μM NECA was incubated for 15 min at 37° C. (total incubation time 30 min). Reaction was stopped with lysis buffer supplied in the kit and the enzymeimmunoassay was carried out for detection of intracellular cAMP at 450 nm in an Ultra Evolution detector (Tecan). Data were fitted by non-linear regression using GraphPad Prism v2.01 (GraphPad Software).
For `Nc1nc(-n2cccn2)nc(NC2CC2)c1Br` [Example 8, 5-bromo-N^4-cyclopropyl-2-(1H-pyrazol-1-yl)pyrimidine-4,6-diamine], the Ki came to 60 nM. Same read-out and setting: as for `CN(C)c1nc(-n2cccn2)nc(N)c1Br` [Example 13, 5-bromo-N^4,N^4-dimethyl-2-(1H-pyrazol-1-yl)pyrimidine-4,6-diamine], the figure is 50 nM. On the same count and under the same terms, as for `Nc1nc(-c2nccs2)nc(-c2nccs2)c1Br` [Example 93, 5-Bromo-2,6-di(thiazol-2-yl)pyrimidin-4-amine], the figure is 12 nM.

The values are drawn from US8796284B2, “4-aminopyrimidine derivatives and their as as adenosine A2a receptor antagonists” (Palobiofarma, S.L., priority 2010, dated 2014).
